Laboratory results reported in PMC10218498, “Exploring BenzylethoxyAryl Urea Scaffolds for Multitarget Immunomodulation Therapies” (International Journal of Molecular Sciences, 2023).

Columns and labels:
[1] = test system: HEK-293 (human embryonic kidney cells); assay: MTT cell proliferation assay, HEK-293; type: cell-based; details: HEK293, 48 h of treatment
Procedure: This assay allowed us to establish the corresponding IC50 values (expressed as the concentration, in μM, at which 50% of cell viability is achieved), shown in Table 1.
In 96-well plates, 5 × 10^3 (HT-29, MCF-7, A549, HMEC-1, Jurkat, and HEK-293) cells per well were incubated with serial dilutions of the tested compounds in a total volume of 100 μL of their respective growth media. The 3-(4,5-dimethylthiazol-2-yl)-2,5-diphenyltetrazolium bromide (MTT; Sigma Chemical Co.) dye reduction assay in 96-well microplates was used. After 2 days of incubation (37 °C, 5% CO2 in a humid atmosphere), 10 μL of MTT (5 mg/mL in phosphate-buffered saline, PBS) was added to each well, and the plate was incubated for a further 3 h (37 °C). After that, the supernatant was discarded and replaced by 100 µL of DMSO to dissolve formazan crystals. The absorbance was then read at 550 nm by spectrophotometry. For all concentrations of compound, cell viability was expressed as the percentage of the ratio between the mean absorbance of treated cells and the mean absorbance of untreated cells. Three independent experiments were performed, and the IC50 values (i.e., concentration half inhibiting cell proliferation) were graphically determined using GraphPad Prism 4 software.

VEGFR-2 = VEGFR-2 (Homo sapiens, UniProt P35968); assay: VEGFR-2 relative quantification by flow cytometry in HT-29; type: cell-based; design: Both membrane and total PD-L1 and VEGFR-2 were relatively determined using DMSO-treated cells as a negative control; endogenous in cells; host or cells: HT-29; details: 24 h; for Total VEGFR-2 (%): relative to DMSO control = 100; for inhibition at 20 µM: HT-29, HT-29, 20 µM, read-out: inhibition rate of VEGFR-2
VEGFR-2, sequence (P35968 20-1356): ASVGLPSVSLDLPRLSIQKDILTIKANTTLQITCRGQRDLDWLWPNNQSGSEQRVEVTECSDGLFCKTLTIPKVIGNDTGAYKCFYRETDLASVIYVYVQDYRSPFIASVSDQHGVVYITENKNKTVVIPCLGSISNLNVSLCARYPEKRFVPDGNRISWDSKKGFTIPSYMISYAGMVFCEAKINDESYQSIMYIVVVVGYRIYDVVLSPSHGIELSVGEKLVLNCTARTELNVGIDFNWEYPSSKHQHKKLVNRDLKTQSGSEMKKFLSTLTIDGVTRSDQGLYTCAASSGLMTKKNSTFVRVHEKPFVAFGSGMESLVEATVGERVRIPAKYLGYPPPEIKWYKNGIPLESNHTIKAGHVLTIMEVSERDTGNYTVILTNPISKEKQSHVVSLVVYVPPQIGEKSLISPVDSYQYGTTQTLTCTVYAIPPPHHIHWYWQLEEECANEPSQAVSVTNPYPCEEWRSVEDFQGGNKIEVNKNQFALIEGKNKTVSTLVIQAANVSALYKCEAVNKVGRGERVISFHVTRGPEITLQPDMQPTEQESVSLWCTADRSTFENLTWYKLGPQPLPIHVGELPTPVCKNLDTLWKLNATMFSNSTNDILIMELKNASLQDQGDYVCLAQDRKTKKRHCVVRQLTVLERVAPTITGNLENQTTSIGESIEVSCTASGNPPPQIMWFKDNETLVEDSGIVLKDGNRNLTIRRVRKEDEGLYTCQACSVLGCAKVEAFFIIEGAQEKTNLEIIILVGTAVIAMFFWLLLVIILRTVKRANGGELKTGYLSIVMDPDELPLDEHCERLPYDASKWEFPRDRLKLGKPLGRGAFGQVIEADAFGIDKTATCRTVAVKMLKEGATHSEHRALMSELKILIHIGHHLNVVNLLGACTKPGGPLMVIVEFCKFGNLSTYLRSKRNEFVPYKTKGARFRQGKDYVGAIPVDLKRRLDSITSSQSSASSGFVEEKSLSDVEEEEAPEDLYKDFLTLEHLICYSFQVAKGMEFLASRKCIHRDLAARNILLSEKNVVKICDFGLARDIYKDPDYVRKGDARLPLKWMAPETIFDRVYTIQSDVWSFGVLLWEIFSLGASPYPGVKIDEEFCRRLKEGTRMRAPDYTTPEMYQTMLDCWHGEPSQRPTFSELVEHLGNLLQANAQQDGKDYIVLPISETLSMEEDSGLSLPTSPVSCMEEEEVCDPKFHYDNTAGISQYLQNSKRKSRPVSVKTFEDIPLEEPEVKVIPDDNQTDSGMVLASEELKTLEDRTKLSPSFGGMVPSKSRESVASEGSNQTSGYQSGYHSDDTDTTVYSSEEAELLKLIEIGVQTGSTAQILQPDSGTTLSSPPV
Procedure: For these assays, cells were incubated for 24 h in the presence of the corresponding compounds at 20 µM concentration.
(§1) To study the effect of the compounds on every biological target in cancer cell lines, the compounds were used at 20 µM dose.
(§2) For the assay, 10^5 cells per well were incubated for 24 h with the corresponding dose of the tested compound in a total volume of 500 μL of their growth media.
On the one hand, to detect total PD-L1 and VEGFR-2, after the cell treatments, they were collected and fixed with 4% in PBS paraformaldehyde.
(§3) On the other hand, to detect membrane PD-L1 and VEGFR-2, the process was the same, avoiding the treatment with 0.5% in PBS TritonTM X-100 step.

PD-L1 = PD-L1 (Homo sapiens, UniProt Q9NZQ7); assay: PD-L1 relative quantification by flow cytometry in A-549; type: cell-based; design: endogenous in cells; host or cells: A-549; details: A-549, 20 µM, 24 h, relative to DMSO control = 100
PD-L1, sequence (Q9NZQ7 19-290): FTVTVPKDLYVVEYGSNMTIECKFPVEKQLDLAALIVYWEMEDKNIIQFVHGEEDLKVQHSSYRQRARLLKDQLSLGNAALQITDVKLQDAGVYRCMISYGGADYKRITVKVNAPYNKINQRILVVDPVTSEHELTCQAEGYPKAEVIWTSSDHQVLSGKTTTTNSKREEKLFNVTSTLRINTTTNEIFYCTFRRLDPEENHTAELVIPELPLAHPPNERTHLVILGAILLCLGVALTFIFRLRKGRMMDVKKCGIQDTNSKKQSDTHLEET
Procedure: To assess the effect of the selected compounds on the biological targets PD-L1 and VEFGR-2, we performed the study on both cancer cell lines HT-29 and A-549 and by flow cytometry technique. […] For these assays, cells were incubated for 24 h in the presence of the corresponding compounds at 20 µM concentration.
as §1, §2
On the one hand, to detect total PD-L1 and VEGFR-2, after the cell treatments, they were collected and fixed with 4% in PBS paraformaldehyde. After fixation, a treatment with 0.5% in PBS TritonTM X-100 was performed, and finally, cells were stained with FITC Mouse monoclonal Anti-Human VEGFR-2 (ab184903) and Alexa Fluor® 647 Rabbit monoclonal Anti-PD-L1 (ab215251).
as §3

CD80 = CD80 relative quantification by flow cytometry in co-cultured THP-1; type: cell-based, human; details: 20 μM, related to non-treated cells
Procedure: Reducing the expression of CD11b has become a promising target for immune modulation in anti-cancer therapies. For that reason, we decided to study the effect of our compounds on CD11b in THP-1 cells co-cultured with HT-29. We also determine the relative amount of CD80, a common surface marker for monocytes. This study was performed on the collected cell culture from each well and gating living THP-1 cell population.
To study the effect of the compounds on every biological target in co-cultured THP-1 immune cells with cancer cell line HT-29, the compounds were incubated for 24 h/48 h as described before.
To detect membrane CD11b and CD80, after the cell incubation, suspended THP-1 was collected from the cell culture of each sample well, fixed with 4% in PBS paraformaldehyde, and stained with FITC Mouse monoclonal Anti-Human CD80 (Sigma-Aldrich, S. Louis, MO, USA, SAB4700142) and Alexa Fluor® 647 Rabbit monoclonal Anti-CD11b (Merck, S. Louis, MO, USA, #MABF366).

[2] = test system: HMEC-1 microtube formation; assay: Tube formation inhibition assay on Matrigel; type: cell-based, human; details: HMEC-1 on Matrigel, 24 h
Procedure: The capacity to inhibit the formation of a new vasculature network formed by HMEC-1 was evaluated on compounds 8 and 14 at different concentrations.
Wells of an IBIDI μ-slide angiogenesis (IBIDI, Martinsried, Germany) were coated with 15 μL of Matrigel® (10 mg/mL, BD Biosciences) at 4 °C. After gelatinization at 37 °C for 30 min, HMEC-1 cells were seeded at 2 × 10^4 cells/well in 25 μL of culture medium on top of the Matrigel and were incubated 30 min at 37 °C while are attached. Then, compounds were added and dissolved in 25 μL of culture medium, and after 24 h of incubation at 37 °C, tube formation was evaluated.

[3] = membrane THP-1, 1:5 HT-29/THP-1, 24 h
[4] = membrane THP-1, 2:1 HT-29/THP-1, 48 h

| Compound | IC50 [1] | Total VEGFR-2 (%) (VEGFR-2; HT-29, 20 µM) | Total PD-L1 (%) (PD-L1) | % CD80 (CD80; [3]) | % CD80 (CD80; [4]) | inhibition at 20 µM (VEGFR-2) | melting point | Minimum Active Conc. (inhibition of microtube formation) [2] | inhibition rate of VEGFR-2 (VEGFR-2; HT-29, 20 µM) |
| --- | --- | --- | --- | --- | --- | --- | --- | --- | --- |
| Cc1c(COc2ccc(CN3CCCCC3C(=O)O)cc2Br)cccc1-c1ccccc1 (centres unmarked) [BMS-8, reference compound] | 60 ± 10 µM | 86 ± 21% | 96 ± 29% | 101 ± 6% | 101 ± 6% | – | – | – | – |
| COc1ccc(COc2cccc(NC(=O)Nc3ccc(F)cc3)c2)cc1 [Compound 2] | > 100 µM | 62 ± 15% | 107 ± 13% | 99 ± 5% | 105 ± 1% | ~50% | 201 to 205 °C | – | – |
| COc1ccc(COc2cccc(NC(=O)Nc3ccc(Br)cc3)c2)cc1 [Compound 8] | > 100 µM | 46 ± 18% | 80 ± 7% | 95 ± 9% | 103 ± 2% | ~60% | – | 20 µM | – |
| COc1ccc(COc2cccc(NC(=O)Nc3ccc(OC)cc3)c2)cc1 [Compound 11] | > 100 µM | 168 ± 12% | 135 ± 18% | 102 ± 6% | 103 ± 2% | – | – | – | no inhibitory effect |
| COc1ccc(COc2cccc(NC(=O)Oc3ccccc3)c2)cc1 [Compound 14] | > 100 µM | 43 ± 12% | 141 ± 1% | 99 ± 6% | 102 ± 1% | ~60% | – | 20 µM | – |
